Where two headings read alike, the source gives them in different places.
Key:
Type in all cases: cell-based, mouse
[1] = system: Nanog/GFP expression in NeFREC(g); assay: Chemical genomics screen in NeFREC(g), ES medium without LIF, Nanog/GFP by flow cytometry; details: for Effect on RA-induced Nanog/GFP downregulation: agent plus RA compared to RA-induced differentiation condition; for Effect on Nanog/GFP expression / ES cell differentiation induced by omission of LIF: compound alone in ES medium without LIF, one and two days
Protocol: To validate the use of NeFRECs as an easy reporter cell in chemical genomics proof-of-principle studies were performed with several compounds that are known to show effects on ES cell self-renewal and differentiation or were previously tested in early embryonic development and cancer therapy. The compounds included in the experiment were RA (Sigma, Cat# R2625), Trichostatin A (TSA, Sigma, Cat# T8552, a histone deacetylase (HDAC) inhibitor), Ly294002, (CALBIOCHEM, Cat# 440202, a phosphatidylinositol 3-kinase (PI3K) inhibitor), Rapamycin (Rapa, Sigma, Cat# R0395, an inhibitor of mTOR), PD98059 (CALBIOCHEM, Cat# 513000, a MAP kinase (MAPK) inhibitor), 5-aza-2′-deoxycytidine (AZA, Sigma, Cat# A3656, an inhibitor of DNA methytransferases).
(§1) For the chemical genomics screen 2.5×10^4 cells in 0.5 ml ES medium were plated per 24-well the day before treatment. Medium without LIF supplemented with the different compounds at indicated concentrations was added 24 hrs post-plating. Medium was changed daily. Nanog/GFP levels for each sample were measured by flow cytometry one and two days post drug treatment. Average percentages of Nanog/GFP^+ cells were calculated from duplicate samples (FIG. 10A).

ES cells = system: ES cells
NeFREC(g) = assay: Cell morphology of NeFREC(g) after compound treatment; details: day 2 of treatment
Protocol: Microscopy. Microscopy was performed on a Nikon Eclipse TE2000-U microscope with appropriate filter sets, CoolSnapES (black and white/fluorescence) and DXM1200F (color) cameras, and MetaView (black and white/fluorescence) and ACT (color) image-processing software.
as §1
Addition of RA, LY294002 or PD98059 to the cultures has different effects on ES cell colony morphology.

[2] = system: Nanog/GFP expression in NeFREC(g); assay: Nanog/GFP expression of NeFREC(g) clones in response to RA, flow cytometry
Protocol: ES cell growth and differentiation. ES cells were maintained on gelatin-coated tissue culture plates in Dulbecco's Modified Eagels Medium (DMEM; Invitrogen/Gibco) supplemented with 15% fetal calf serum (FCS), 1 mM sodium pyruvate, 2 mM L-glutamine (Invitrogen/Gibco), 0.1 mM non-essential amino acids (Invitrogen/Gibco), 100 U/ml penicillin, 100 μg/ml streptomycin, 1×10^−4 M 2-Mercaptoethanol (2-ME) and 1000 U/ml leukemia inhibitory factor (LIF; ESGROW, Chemicon), henceforth referred to as ES medium. Medium was changed every day and cells were split every second day.
One day prior to differentiation cells were plated on gelatinized culture dishes in the aforementioned medium. Differentiation was induced either by removal of LIF or removal of LIF and addition of retinoic acid (RA, Sigma) if grown in ES medium or either LIF or Bmp4 or both if grown in SF-ES medium.
Cell surface staining, FACS analysis and Cell Sorting. Standard conditions were used to stain the cells. Cell suspensions were analyzed on a FACS Sort (Becton Dickinson). Cell sorting was performed using a FacsVantage with DiVa Software (Becton Dickinson).
NeFREC(g) clones. To determine the dynamics of Nanog/GFP expression of NeFREC(g) clones in response to RA, 4 individual clones (numbers 4, 9, 20 and 23) were analyzed in detail (FIG. 6a upper panel). 2.5×10^4 cells were plated in 0.5 ml ES medium the day before RA treatment. ES medium without LIF and supplemented with 10 μM RA (10 mM stock dissolved in 100% ethanol) was added to cells 24 hours post-plating (indicated as day 0). Nanog/GFP levels in treated cells were measured daily, day 0 to day 3, by flow cytometry. […] By day 3, less than 5% cells remain Nanog/GFP+ in response to RA treatment. […] Eef1b gene expression was used as loading control (5′-[…]-3′ (SEQ ID NO:17) and 5′-[…]-3′ (SEQ ID NO:18)).
To further determine the dynamics of Nanog/GFP expression of NeFREC(g), a RA dosage response experiment, ranging from 0.2 to 10 μM RA, was performed (FIG. 6B). An RA dosage of 0.2 μM is sufficient to induces a rapid and significant downregulation of Nanog/GFP expression in NeFREC(g). Omitting LIF from the ES medium also induces loss of Nanog/GFP expression in these cells at a slower rate compared to RA treatment. Forty percent of the cells still remain Nanog/GFP^+ by day 3. A RA pulse experiment was performed to determine the time required to initiate Nanog/GFP downregulation (i.e. differentiation) in response to 1 μM of RA (FIG. 6C). 2.5×10^4 cells were plated initially in 0.5 ml media per well in a 24-well plate the day before treatment. Cells were pulsed with 1 μM RA in ES medium without LIF for the indicated time periods and then changed to fresh ES medium. Nanog/GFP expression was measured after one day and two days of RA treatment.

[3] = system: Nanog/GFP expression in NeFREC(g); assay: Combinatorial RA and TSA treatment of NeFREC(g), Nanog/GFP by flow cytometry
Protocol: In brief, 2.5×10^4 cells were plated in 0.5 ml ES medium. The HDAC inhibitor TSA was added at various concentrations 24 hours post-plating. One day after TSA treatment, medium was changed to ES medium without LIF plus 1.0 μM RA (indicated as day 0). Medium was changed and Nanog/GFP expression monitored by flow cytometry on a daily basis. […] 75 nM TSA rescued Nanog/GFP levels by more than 50% by day 2.

[4] = system: Nanog/GFP expression in NeFREC(g)-SF; assay: Transient RNA shRNA transfection of NeFREC(g)-SF, Nanog/GFP by flow cytometry; details: NeFREC(g)-SF in SF-ES medium, by day 2; from 94.8%
Protocol: Alternatively, ES cells were maintained on gelatin-coated tissue culture plates in a 1:1 mixture of Neurobasal with N2-supplement (Invitrogen/Gibco) and DMEM/F12 with B27 (Invitrogen/Gibco) supplemented with 10% fraction V bovine serum albumin (BSA; Sigma) and 100 U/ml penicillin, 100 μg/ml streptomycin, 1×10^−4 M 2-ME), 1000 U/ml LIF and 10 ng/ml bone morphogenic protein (Bmp) 4 (R&D Systems), henceforth referred to as SF-ES medium. Medium was changed every day and cells split every second day.
RNA shRNA Transfection. For transfection of RNA shRNA, cells were harvested, washed with DMEM and resuspended at 2×10^5/ml in medium without penicillin and streptomycin. 250 μl of medium without penicillin and streptomycin was added per gelatin pre-coated well of a 24-well culture plate. In order to prepare the RNA shRNA transfection mixture per well, 10-20 μl of RNA shRNA [1 pmole/μl] was mixed with OptiMEM (Invitrogen/Gibco) in a final volume of 50 μl. In a separate tube, 1 μl Lipofectamine2000 (Invitrogen) was added to 49 μl of OptiMEM per sample. The RNA shRNA/OptiMEM and Lipofectamine/OptiMEM solutions were combined, mixed, incubated for 20 min at room temperature and added to the well. Then, 250 μl of cell solution, i.e., 5×10^4 cells/well, were added and the 24-well plate incubated in a humidified chamber in 5% CO2/air mixture at 37° C. […]

[5] = system: Nanog/GFP expression in NeFREC(g); assay: Transient RNA shRNA transfection of NeFREC(g), Nanog/GFP by flow cytometry; details: for Nanog/GFP expression (NeFREC(g) bearing Nanog/GFP): by three days, from 90.9%
Protocol: RNA shRNA Transfection. For transfection of RNA shRNA, cells were harvested, washed with DMEM and resuspended at 2×10^5/ml in medium without penicillin and streptomycin. 250 μl of medium without penicillin and streptomycin was added per gelatin pre-coated well of a 24-well culture plate. In order to prepare the RNA shRNA transfection mixture per well, 10-20 μl of RNA shRNA [1 pmole/μl] was mixed with OptiMEM (Invitrogen/Gibco) in a final volume of 50 μl. In a separate tube, 1 μl Lipofectamine2000 (Invitrogen) was added to 49 μl of OptiMEM per sample. The RNA shRNA/OptiMEM and Lipofectamine/OptiMEM solutions were combined, mixed, incubated for 20 min at room temperature and added to the well. Then, 250 μl of cell solution, i.e., 5×10^4 cells/well, were added and the 24-well plate incubated in a humidified chamber in 5% CO2/air mixture at 37° C. Twenty-four hours after transfection, medium was replaced with appropriate medium with penicillin and streptomycin.
RNA shRNA against GFP (5′-[…] UAGACGUUGUGGCUGU-3′; SEQ ID NO:31) was transfected into NeFREC(g) as described in Example 1. Ten pmole of RNA shRNA against GFP reduced Nanog/GFP reporter expression in NeFREC(g) from 85.8% down to 18% 72 hours post-transfection (FIG. 11A). The reduction in Nanog/GFP fluorescence is RNA shRNA concentration-dependent.
The transcription factor Pou5f1 is required for ES cell maintenance and when reduced by more than 50% of wild-type levels results in differentiation towards trophectodermal cells (Niwa et al., 2000 Nat. Genet. 24:372-376). Therefore, 10 pmole of RNA shRNA against Pou5f1 (5′-[…] UAAGGCUGAGCUGCAA-3′; SEQ ID NO:32) was transfected into NeFREC(g).

In the case of `Nc1ncn([C@H]2C[C@H](O)[C@@H](CO)O2)c(=O)n1` [AZA, 5-aza-2′-deoxycytidine], the “Effect on RA-induced Nanog/GFP downregulation” value [1] is reported as “delay RA-induced Nanog/GFP downregulation”, the “Effect on Nanog/GFP expression / ES cell differentiation induced by omission of LIF” value [1] is reported as “blocked or delayed ES cell differentiation” and the “Cell death as indicated by floating cells in culture” value (ES cells) is reported as “can cause cell death at too high concentrations”.

In the case of `COc1cccc(-c2cc(=O)c3ccccc3o2)c1N` [PD98059], the “Effect on RA-induced Nanog/GFP downregulation” value [1] is reported as “delay RA-induced Nanog/GFP downregulation”, the “Effect on Nanog/GFP expression / ES cell differentiation induced by omission of LIF” value [1] is reported as “blocked or delayed ES cell differentiation” and the “ES cell colony morphology” value (NeFREC(g)) is reported as “look more like NeFREC(g) cultured in ES medium alone”.

`CC1=C(/C=C/C(C)=C/C=C/C(C)=C/C(=O)O)C(C)(C)CCC1` [RA, retinoic acid] was tested, and the “cells remaining Nanog/GFP+” value ([2]; 10 μM RA, ES medium without LIF, by day 3) was “less than 5%”, the “GFP levels after RA pulse” value ([2]; 24-hour treatment with 1 μM RA in ES medium without LIF, then fresh ES medium, from more than 90%) was 45% and the “NeFREC(g)s in which the differentiated state is irreversibly fixed” value ([2]; after 24-hour differentiation pulse, 1 μM RA) was “about 50%”. The “RA dosage sufficient to induce rapid and significant downregulation of Nanog/GFP expression” value ([2]; dosage response 0.2 to 10 μM RA) was 0.2 µM.

`CC(/C=C/C(=O)NO)=C\[C@@H](C)C(=O)c1ccc(N(C)C)cc1` [TSA, Trichostatin A] was tested, and the “Effect on RA-induced Nanog/GFP downregulation” value [1] was “delay RA-induced Nanog/GFP downregulation”, the “Effect on Nanog/GFP expression / ES cell differentiation induced by omission of LIF” value [1] was “blocked or delayed ES cell differentiation” and the “Rescue of Nanog/GFP levels” value ([3]; 75 nM TSA, then 1.0 μM RA, by day 2) was “more than 50%”. For the same molecule, the “TSA concentrations at which RA-induced downregulation of Nanog/GFP is markedly reduced” value ([3]; TSA 24 h, then ES medium without LIF plus 1.0 μM RA) was “higher than 75 nM”, the “Concentration sufficient to kill all ES cells” value (ES cells; by day 3 of culture) was 300 nM and the “Cell death as indicated by floating cells in culture” value (ES cells; too high concentrations) was “can cause cell death at too high concentrations”.

B1: RNA shRNA against Pou5f1: RNA shRNA against Pou5f1, SEQ ID NO:32 (nucleic acid)
chain: GCAGCUCAGCCUUAAGAACAUGUGUAAGCUUUGGAGCUUACACAUGUUCUUAAGGCUGAGCUGCAA
modifications: siRNA; RNA, backbone not given here; hairpin shRNA transfected as RNA
B1 was tested, and the Nanog/GFP levels [4] was 68.5% and the “Nanog/GFP expression (NeFREC(g) bearing Nanog/GFP)” value ([5]; 10 pmole RNA shRNA) was 73.1%.

B2: RNA shRNA against GFP: RNA shRNA against GFP, SEQ ID NO:31 (nucleic acid)
chain: AGCCACAACGUCUAUAUCAUGGCCGACAAGUUGGCUUGUCGGCCAUGAUAUAGACGUUGUGGCUGU
modifications: siRNA; RNA, backbone not given here; hairpin shRNA transfected as RNA
In the case of B2, the Nanog/GFP levels [4] is reported as 14.1%, the “Concentration dependence of reduction in Nanog/GFP fluorescence” value ([5]; 0 to 10 pmole RNA shRNA) is reported as “concentration-dependent” and the Nanog/GFP reporter expression ([5]; 10 pmole RNA shRNA, 72 hours post-transfection, from 85.8%) is reported as 18%. The “Nanog/GFP expression (NeFREC(g) bearing Nanog/GFP)” value ([5]; 10 pmole RNA shRNA) was 21.2%.
